In assay [1] the target is T1, human full-length MKNK1 (Homo sapiens (Human), UniProt Q9BUB5, T344D). The experiment in a line: MKNK1 kinase assay (TR-FRET, 10 μM ATP). Format: biochemical. The following applies: 15 min preincubation, GST-MKNK1 (T344D). Here is the method:
MKNK1-inhibitory activity of compounds of the present invention was quantified employing the MKNK1 TR-FRET assay as described in the following paragraphs. […] As substrate for the kinase reaction the biotinylated peptide biotin-Ahx-[…]
For the assay 50 nL of a 100 fold concentrated solution of the test compound in DMSO was pipetted into a black low volume 384 well microtiter plate (Greiner Bio-One, Frickenhausen, Germany), 2 μL of a solution of MKNK1 in aqueous assay buffer [50 mM HEPES pH 7.5, 5 mM magnesium chloride, 1.0 mM dithiothreitol, 0.005% (v/v) Nonidet-P40 (Sigma)] was added and the mixture was incubated for 15 min at 22° C. to allow pre-binding of the test compounds to the enzyme before the start of the kinase reaction. […] The concentration of MKNK1 was adjusted depending of the activity of the enzyme lot and was chosen appropriate to have the assay in the linear range, typical concentrations were in the range of 0.05 μg/mi. The reaction was stopped by the addition of 5 μL of a solution of TR-FRET detection reagents (5 nM streptavidine-XL665 [Cisbio Bioassays, Codolet, France] and 1 nM anti-ribosomal protein […] (pSer236)-antibody from Invitrogen [#44921G] and 1 nM LANCE EU-W1024 labeled ProteinG [Perkin-Elmer, product no. AD0071]) in an aqueous EDTA-solution (100 mM EDTA, 0.1% (w/v) bovine serum albumin in 50 mM HEPES pH 7.5).
(§1) The resulting mixture was incubated for 1 h at 22° C. to allow the formation of complex between the phosphorylated biotinylated peptide and the detection reagents. Subsequently the amount of phosphorylated substrate was evaluated by measurement of the resonance energy transfer from the Eu-chelate to the streptavidine-XL.

In assay [2] the target is T1, human full-length MKNK1. The experiment in a line: MKNK1 kinase high ATP assay (TR-FRET, 2 mM ATP). Format: biochemical. The following applies: 15 min preincubation, GST-MKNK1 (T344D). Here is the method:
MKNK1-inhibitory activity at high ATP of compounds of the present invention after their preincubation with MKNK1 was quantified employing the TR-FRET-based MKNK1 high ATP assay as described in the following paragraphs.
As substrate for the kinase reaction the biotinylated peptide biotin-Ahx-[…]
For the assay 50 nL of a 100 fold concentrated solution of the test compound in DMSO was pipetted into a black low volume 384 well microtiter plate (Greiner Bio-One, Frickenhausen, Germany), 2 μL of a solution of MKNK1 in aqueous assay buffer [50 mM HEPES pH 7.5, 5 mM magnesium chloride, 1.0 mM dithiothreitol, 0.005% (v/v) Nonidet-P40 (Sigma)] was added and the mixture was incubated for 15 min at 22° C. to allow pre-binding of the test compounds to the enzyme before the start of the kinase reaction. Then the kinase reaction was started by the addition of 3 μL of a solution of adenosine-tri-phosphate (ATP, 3.3 mM=>final conc. in the 5 μL assay volume is 2 mM) and substrate (0.1 μM=>final conc. in the 5 μL assay volume is 0.06 μM) in assay buffer and the resulting mixture was incubated for a reaction time of 30 min at 22° C. The concentration of MKNK1 was adjusted depending of the activity of the enzyme lot and was chosen appropriate to have the assay in the linear range, typical concentrations were in the range of 0.003 μg/mL. The reaction was stopped by the addition of 5 μL of a solution of TR-FRET detection reagents (5 nM streptavidine-XL665 [Cisbio Bioassays, Codolet, France] and 1 nM anti-ribosomal protein S6 (pSer236)-antibody from Invitrogen [#44921G] and 1 nM LANCE EU-W1024 labeled ProteinG [Perkin-Elmer, product no. AD0071]) in an aqueous EDTA-solution (100 mM EDTA, 0.1% (w/v) bovine serum albumin in 50 mM HEPES pH 7.5).
as §1

SMILES strings stand for the structures.

Results on 11 molecules are retold here after US10214545B2, “Amido-substituted imidazopyridazines useful in the treatment of hyper-proliferative and/or angiogenesis disorders” (BAYER PHARMA AKTIENGESELLSCHAFT, priority 2014, dated 2019).

T1 sequence (Q9BUB5 other isoform, or with tags, fused parts or gaps T344D): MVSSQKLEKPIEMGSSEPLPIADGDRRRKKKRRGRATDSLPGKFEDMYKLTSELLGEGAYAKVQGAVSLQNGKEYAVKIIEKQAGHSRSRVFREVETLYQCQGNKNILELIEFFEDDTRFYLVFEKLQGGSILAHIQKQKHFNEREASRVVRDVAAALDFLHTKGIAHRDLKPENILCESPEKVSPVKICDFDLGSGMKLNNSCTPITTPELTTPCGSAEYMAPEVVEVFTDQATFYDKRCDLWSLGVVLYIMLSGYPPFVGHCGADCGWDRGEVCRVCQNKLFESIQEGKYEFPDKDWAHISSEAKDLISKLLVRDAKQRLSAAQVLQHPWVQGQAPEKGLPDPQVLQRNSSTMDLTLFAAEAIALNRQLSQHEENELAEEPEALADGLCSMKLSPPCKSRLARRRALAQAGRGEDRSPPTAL

For `CN(C)CCN(C)C(=O)c1ccc2ncc(-c3cc4c(N5CCOCC5)nccc4o3)n2n1` [Example 3, N-[2-(dimethylamino)ethyl]-N-methyl-3-[4-(morpholin-4-yl)furo[3,2-c]pyridin-2-yl]imidazo[1,2-b]pyridazine-6-carboxamide], the IC50 – broadly, the concentration at which inhibition is half-maximal – in assay [1] turned out to be 88 nM; in assay [2], 140 nM.

Regarding `O=C(NCc1ccccc1)c1ccc2ncc(-c3cc4ccccc4o3)n2n1` [Example 14, 3-(1-Benzofuran-2-yl)-N-benzylimidazo[1,2-b]pyridazine-6-carboxamide], the IC50 in assay [1] came to 5.2 nM; in assay [2], 12 nM.

`CN(Cc1ccccc1)C(=O)c1ccc2ncc(-c3cc4ccccc4o3)n2n1` [Example 16, 3-(1-Benzofuran-2-yl)-N-benzyl-N-methylimidazo[1,2-b]pyridazine-6-carboxamide]: the IC50 in assay [1] amounted to 8.8 nM; in assay [2], 23 nM.

In the case of `CC(C)[C@H](CO)NC(=O)c1ccc2ncc(-c3cc4ccccc4o3)n2n1` [Example 13, 3-(1-Benzofuran-2-yl)-N-[(2R)-1-hydroxy-3-methylbutan-2-yl]imidazo[1,2-b]-pyridazine-6-carboxamide], the IC50 in assay [1] was 6.8 nM; in assay [2] it was 12 nM.

As to `CN1CCN(C(=O)c2ccc3ncc(-c4cc5c(N6CCOCC6)nccc5o4)n3n2)CC1` [Example 4, (4-Methylpiperazin-1-yl){3-[4-(morpholin-4-yl)furo[3,2-c]pyridin-2-yl]imidazo-[1,2-b]pyridazin-6-yl}methanone], the results for the 50% inhibitory concentration (IC50) in assay [1] and in assay [2] were 110 nM and 280 nM, respectively.

Regarding `COCCCNC(=O)c1ccc2ncc(-c3cc4ccccc4o3)n2n1` [Example 12, 3-(1-Benzofuran-2-yl)-N-(3-methoxypropyl)imidazo[1,2-b]pyridazine-6-carboxamide], the results for the IC50 in assay [1] and in assay [2] were 4.9 nM and 9.5 nM, respectively.

As for `CN(C)CCCNC(=O)c1ccc2ncc(-c3cc4ccccc4o3)n2n1` [Example 10, 3-(1-Benzofuran-2-yl)-N-[3-(dimethylamino)propyl]imidazo[1,2-b]pyridazine-6-carboxamide], the IC50 was found to be 3.3 nM in assay [1] and 7.9 nM in assay [2].

As for `CC(C)[C@@H](CO)NC(=O)c1ccc2ncc(-c3cc4ccccc4o3)n2n1` [Example 18, 3-(1-Benzofuran-2-yl)-N-[(2S)-1-hydroxy-3-methylbutan-2-yl]imidazo[1,2-b]-pyridazine-6-carboxamide], the IC50 in assay [1] was 1.3 nM; in assay [2], 42 nM.

Regarding `C[C@H](CO)NC(=O)c1ccc2ncc(-c3cc4ccccc4o3)n2n1` [Example 11, 3-(1-Benzofuran-2-yl)-N-[(2R)-1-hydroxypropan-2-yl]imidazo[1,2-b]pyridazine-6-carboxamide], the concentration for half-maximal inhibition (IC50) in assay [1] was 4.1 nM; in assay [2], 8.8 nM.

As to `COCCNC(=O)c1ccc2ncc(-c3cc4ccccc4o3)n2n1` [Example 15, 3-(1-Benzofuran-2-yl)-N-(2-methoxyethyl)imidazo[1,2-b]pyridazine-6-carboxamide], the IC50 in assay [1] was 8 nM; in assay [2], 15 nM.

As to `CN(C)CCNC(=O)c1ccc2ncc(-c3cc4ccccc4o3)n2n1` [Example 17, 3-(1-Benzofuran-2-yl)-N-[2-(dimethylamino)ethyl]imidazo[1,2-b]pyridazine-6-carboxamide], the IC50 in assay [1] stood at 1.7 nM; in assay [2], 34 nM.
